Values quoted from earlier work in patent US20210260012A1, “COMPOSITIONS FOR THE PREVENTION AND TREATMENT OF CUTANEOUS AFFECTIONS” (I.C.F. SRL, priority 2018, published 2021).

Test system: biofilms from E. coli
Details: at high concentrations

CC(=O)NC(CS)C(=O)O (stereo not drawn) [Acetylcysteine, α-acetamido-β-mercaptopropanoic acid]
reduction in the mass of biofilms: up to 55%
